Measured values as given in US20130109682A1, “CYCLIC ETHER COMPOUNDS USEFUL AS KINASE INHIBITORS” (NOVARTIS AG, priority 2010, published 2013).

Legend:
PIM1 = PIM1 (Homo sapiens, UniProt P11309); test: KinaseGlo Pim1 ATP depletion assay; assay type: biochemical
Summary of the method: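 2.5 nM PIM1 preincubated 15 min with compound and 40 μM BAD peptide in 50 mM HEPES pH 7.5, 5 mM MgCl2, 1 mM DTT, 0.05% BSA, 2.5% DMSO. The reaction was started with 20 μM ATP (final) and run to about 50% ATP depletion. Remaining ATP read by KinaseGlo Plus luminescence to give IC50.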

PIM2 = PIM2 (Homo sapiens, UniProt Q9P1W9); test: KinaseGlo Pim2 ATP depletion assay; assay type: biochemical
Summary of the method: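 Luminescent ATP-depletion read-out of PIM2 phosphorylating BAD peptide (RSRHSSYPAGT-OH). Final conditions: 5 nM PIM2, 4 μM ATP, 10 μM peptide, 2.5% DMSO in 50 mM HEPES pH 7.5, 5 mM MgCl2, 1 mM DTT, 0.05% BSA. Enzyme–peptide preincubated 15 min with compound; reaction run to ~50% ATP depletion.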

PIM3 = PIM3 (Homo sapiens, UniProt Q86V86); test: KinaseGlo Pim3 ATP depletion assay; assay type: biochemical
Summary of the method: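 Kinase was preincubated 15 min with BAD peptide in HEPES pH 7.5/MgCl2/DTT/BSA before ATP was added. Final concentrations were 40 μM ATP, 100 μM BAD peptide and 2.5% DMSO, with 5 nM enzyme. The reaction ran to ~50% ATP depletion and remaining ATP was read by KinaseGlo Plus luminescence.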

GSK3β = GSK3β (Homo sapiens, UniProt P49841); test: GSK3β ATP depletion assay; assay type: biochemical; settings: read-out: GSK3b IC50
Summary of the method: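 Human GSK3β (5 nM) preincubated 15 min with 10 μM biotinylated phospho-CREB peptide in pH 7.5 Tris buffer (15 mM MgCl2, 1 mM DTT, 0.1% BSA, 2.5% DMSO). Reaction started with 2 μM ATP and run to about 50% ATP depletion. Remaining ATP measured by KinaseGlo luminescence.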

[1] = tested on: KMS11 (human myeloma cell line); test: Cell proliferation assay (CellTiter-Glo), KMS11; assay type: cell-based; settings: Homo sapiens, KMS-11; KMS11-Luc cells
Summary of the method: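 KMS11 cells in IMDM with 10% FBS and sodium pyruvate, seeded at 2000 cells/well on assay day. Compound added at 2× to equal volume of cells, incubated 3 days at 37° C. Viability read by CellTiter-Glo luminescence; EC50 derived.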

hERG = biological target: T1, hERG (Homo sapiens, UniProt Q12809); test: hERG binding assay ([3H] dofetilide displacement); settings: dofetilide displacement; read-out: HERGdof IC50
T1 construct: host or cells: crude membrane suspension
Protocol: Compounds of the invention were pipetted into each well of pre-wet 96-well Millipore GF/C filter plates (#MSFCN6B50): 119 μl assay buffer, 1 μl test compound in 100% DMSO (or 100% DMSO only for total binding), 40 μl [3H] dofetilide (12.5 nM, final concentration 2.5 nM; Novartis radioisotope laboratory, East Hanover, N.J., USA, specific activity 15-45 Ci/mmol); 40 μl crude membrane suspension (ca. 15 μg protein). The final concentration of DMSO during the incubation was 0.5%. Incubations were performed at room temperature for 90 min. Non-specific binding (NSB) was defined as the binding remaining in the presence of 25 μM terfenadine (Sigma T9652). The incubations were terminated by rapid filtration on a Millipore filtration manifold, followed by three washes of 200 μA ice-cold assay buffer. The plates were left to dry overnight before adding 40 μA scintillant (MicroScint-20). The plates were then sealed (Sealing Tape SI, Nunc 236366) and read in a Wallac MicroBeta Trilux beta-counter for 1.5 min per well. Compounds were tested as 9-concentration response curves in duplicate, ranging from 30 μM to 3 nM in 1:3 dilution steps. Dilution curves were prepared in 100% DMSO. The reference compound (terfenadine) was tested as an eight-concentration response curve, ranging from 10 μM to 0.6 nM in 1:4 dilution steps.

PIM2, sequence (Q9P1W9 whole entry): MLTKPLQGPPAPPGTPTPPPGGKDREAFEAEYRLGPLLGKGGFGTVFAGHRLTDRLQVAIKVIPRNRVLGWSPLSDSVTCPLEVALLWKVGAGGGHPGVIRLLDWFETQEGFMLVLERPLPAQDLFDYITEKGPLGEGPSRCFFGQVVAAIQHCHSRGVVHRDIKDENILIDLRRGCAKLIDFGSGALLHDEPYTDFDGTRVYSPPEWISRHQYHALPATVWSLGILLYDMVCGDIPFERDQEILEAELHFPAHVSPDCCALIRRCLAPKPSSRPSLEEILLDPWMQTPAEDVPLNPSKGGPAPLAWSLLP
T1 sequence (Q12809 whole entry): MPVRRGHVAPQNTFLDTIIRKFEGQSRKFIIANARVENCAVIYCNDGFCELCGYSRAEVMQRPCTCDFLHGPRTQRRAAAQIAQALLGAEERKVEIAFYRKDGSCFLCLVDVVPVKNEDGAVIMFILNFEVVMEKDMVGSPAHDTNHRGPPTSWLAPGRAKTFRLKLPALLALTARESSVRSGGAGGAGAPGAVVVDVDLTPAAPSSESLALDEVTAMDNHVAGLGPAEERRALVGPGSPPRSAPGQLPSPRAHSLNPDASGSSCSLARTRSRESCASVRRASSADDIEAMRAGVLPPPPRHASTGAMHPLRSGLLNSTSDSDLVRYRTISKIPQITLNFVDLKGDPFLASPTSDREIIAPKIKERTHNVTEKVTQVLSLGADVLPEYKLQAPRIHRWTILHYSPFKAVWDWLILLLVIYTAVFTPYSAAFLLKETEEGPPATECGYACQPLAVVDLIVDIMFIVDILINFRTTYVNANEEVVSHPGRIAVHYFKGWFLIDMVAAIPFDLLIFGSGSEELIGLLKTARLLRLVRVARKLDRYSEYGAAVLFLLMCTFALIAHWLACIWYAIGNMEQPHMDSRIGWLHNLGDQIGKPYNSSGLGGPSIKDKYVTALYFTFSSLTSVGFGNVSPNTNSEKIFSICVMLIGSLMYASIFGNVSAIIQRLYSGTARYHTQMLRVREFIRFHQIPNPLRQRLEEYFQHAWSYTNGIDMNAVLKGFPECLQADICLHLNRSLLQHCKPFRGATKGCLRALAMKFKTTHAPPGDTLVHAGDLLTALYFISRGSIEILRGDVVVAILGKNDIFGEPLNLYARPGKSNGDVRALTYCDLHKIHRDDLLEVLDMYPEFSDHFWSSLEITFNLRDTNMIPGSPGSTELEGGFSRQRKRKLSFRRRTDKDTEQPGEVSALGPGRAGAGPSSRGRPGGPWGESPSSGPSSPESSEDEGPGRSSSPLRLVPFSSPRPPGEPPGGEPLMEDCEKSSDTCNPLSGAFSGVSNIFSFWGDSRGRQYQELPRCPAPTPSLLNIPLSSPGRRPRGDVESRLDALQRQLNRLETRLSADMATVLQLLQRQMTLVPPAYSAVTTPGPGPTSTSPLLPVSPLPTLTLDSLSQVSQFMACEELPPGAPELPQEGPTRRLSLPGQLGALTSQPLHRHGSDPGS
GSK3β, sequence (P49841 whole entry, species assumed): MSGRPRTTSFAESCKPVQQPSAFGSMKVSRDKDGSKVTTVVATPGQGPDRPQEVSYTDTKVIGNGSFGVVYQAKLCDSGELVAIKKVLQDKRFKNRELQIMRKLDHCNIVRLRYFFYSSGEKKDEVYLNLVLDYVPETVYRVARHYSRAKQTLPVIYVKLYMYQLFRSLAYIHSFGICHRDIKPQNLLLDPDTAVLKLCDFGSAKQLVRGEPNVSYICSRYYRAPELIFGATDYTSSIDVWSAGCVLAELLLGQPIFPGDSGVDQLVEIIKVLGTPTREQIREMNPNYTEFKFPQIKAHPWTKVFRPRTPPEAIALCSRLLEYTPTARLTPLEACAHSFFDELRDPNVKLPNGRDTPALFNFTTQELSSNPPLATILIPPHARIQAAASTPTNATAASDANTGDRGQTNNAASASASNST
PIM1, sequence (P11309 whole entry): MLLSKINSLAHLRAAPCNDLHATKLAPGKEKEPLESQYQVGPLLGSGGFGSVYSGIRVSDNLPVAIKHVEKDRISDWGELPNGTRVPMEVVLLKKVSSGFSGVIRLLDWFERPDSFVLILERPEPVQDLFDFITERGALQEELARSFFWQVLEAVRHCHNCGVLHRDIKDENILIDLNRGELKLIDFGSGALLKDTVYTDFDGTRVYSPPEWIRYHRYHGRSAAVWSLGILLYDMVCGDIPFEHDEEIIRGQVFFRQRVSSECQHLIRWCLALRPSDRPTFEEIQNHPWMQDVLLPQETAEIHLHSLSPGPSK

IC50 (PIM1) [nM]	IC50 (PIM2) [nM]	IC50 (PIM3) [nM]	IC50 (GSK3β) [nM]	EC50 [1] [nM]	SMILES	IC50 (hERG) [nM]
1	3	2	131	2100	[2H][C@@H]1[C@@H](O)[C@H](O)[C@@H](CC)O[C@@]1([2H])c1ccncc1NC(=O)c1ccc(F)c(-c2c(F)cccc2F)n1 [Example 54, 6-(2,6-difluorophenyl)-N-(4-((2R,4R,5S,6R)-6-ethyl-4,5-dihydroxy-2,3-didueterotetrahydro-2H-pyran-2-yl)pyridin-3-yl)-5-fluoropicolinamide]	> 30000
1	28	6	276	9100	C[C@H]1C[C@@H](O)C[C@@H](c2ccncc2NC(=O)c2ccc(F)c(-c3c(F)cccc3F)n2)O1 (stereo in doubt) [Example 128, 6-(2,6-difluorophenyl)-5-fluoro-N-(4-((2S,4R,6S)-4-hydroxy-6-methyltetrahydro-2H-pyran-2-yl)pyridin-3-yl)picolinamide]	> 30000
1	52	6	1480	6400	C[C@@H]1O[C@H](c2ccncc2NC(=O)c2ccc(F)c(-c3c(F)cccc3F)n2)[C@@H](F)[C@H](O)[C@@]1(C)O (stereo in doubt) [Example 71, 6-(2,6-difluorophenyl)-5-fluoro-N-(4-((2R,3S,4R,5R,6S)-3-fluoro-4,5-dihydroxy-5,6-dimethyltetrahydro-2H-pyran-2-yl)pyridin-3-yl)picolinamide]	> 30000
221	20600	564	257	> 10000	C[C@H]1O[C@@H](c2ccncc2NC(=O)c2cncc(-c3ccccc3)n2)C[C@@H](O)[C@]1(C)O [Example 85, N-(4-((2R,4R,5S,6R)-4,5-dihydroxy-5,6-dimethyltetrahydro-2H-pyran-2-yl)pyridin-3-yl)-6-phenylpyrazine-2-carboxamide]	> 30000
937	> 25000	2670	809	> 10000	C[C@@H]1O[C@H](c2ccncc2NC(=O)c2cncc(-c3ccccc3)n2)C[C@H](O)[C@@]1(C)O [Example 87, N-(4-((2S,4S,5R,6S)-4,5-dihydroxy-5,6-dimethyltetrahydro-2H-pyran-2-yl)pyridin-3-yl)-6-phenylpyrazine-2-carboxamide]	> 30000
1	3	2	73	8300	O=C(Nc1cnccc1[C@H]1C[C@@H](O)[C@H](O)[C@@H](CCl)O1)c1ccc(F)c(-c2c(F)cccc2F)n1 [Example 56, N-(4-((2R,4R,5S,6S)-6-(chloromethyl)-4,5-dihydroxytetrahydro-2H-pyran-2-yl)pyridin-3-yl)-6-(2,6-difluorophenyl)-5-fluoropicolinamide]	> 30000
